# Measured values from US20090274676A1, “COMBINATION OF DEHYDROEPIANDROSTERONE OR DEHYDROEPIANDROSTERONE-SULFATE WITH A PDE-4 INHIBITOR FOR TREATMENT OF ASTHMA OR CHRONIC OBSTRUCTIVE PULMONARY DISEASE” (priority 2003, published 2009).
# Where two headings read alike, the source gives them in different places.
# Experiments:
# [1] = Short-term solution stability of DHEA-S nebulizer formulation; assay type: physicochemical; settings: for Appearance of solution on storage: 10 mg/mL in 0.12% NaCl
# Method: Aliquots of this solution are filled into clear glass vials and stored at RT (24-26° C.) and at 40° C. The samples are checked daily for DHEA-S content, DHEA content, and appearance. For each time point, duplicate samples are withdrawn and diluted from each vial. […] The study is stopped on day three. […] The solution should easily be stable for the day of reconstitution in a clinical trial. The following section describes the aerosol properties of this formulation.
# [2] = HPLC analysis of drug degradation during jet milling; assay type: physicochemical; settings: HPLC peak area vs unmilled standard
# Method: Two vials (A; single-pass; 150 mg) and (B double-pass; 600 mg) of the micronized drug were available for determining drug degradation during jet milling micronization. […] The chromatographic peak area for the HPLC assay of the unmilled drug standard solution (10 mg/ml) gave a value of 23,427. […] The chromatographic peak areas for vials A and B were 11,979 and 11,677, respectively.
# Solubility of DHEA-S = assay type: physicochemical; settings: for Solubility: range of triplicates
# Source text: Inhalation of pure water can produce a cough stimulus. […] The temperature effect is weaker at high NaCl concentrations.
# HT-29 SF cells [3] = assay: Reversal of DHEA-mediated growth inhibition; assay type: cell-based, human; settings: 25 μM DHEA, supplement in medium, 48 hours
# [4] = Physicochemical testing of DHEA-S dihydrate before and after micronization; settings: for Water (% w/w): Karl Fischer
# Method: Surface area is determined using five point BET analyses are performed with nitrogen as the adsorbing gas (P/Po=0.05 to 0.30) using a Micromeritics TriStar surface area analyzer. Particle size distributions are measured by laser diffraction using a Micromeritics Saturn Digisizer where the particles are suspended in mineral oil with sodium dioctyl sodium sulfosuccinate as a dispersing agent. Drug substance water content is measured by Karl Fischer titration (Schott Titroline KF). Pure water is used as the standard and all relative standard deviations for triplicates are less than 1%. Powder is added directly to the titration media.
# [5] = Solid-state stability with and without lactose at 50° C. (HPLC, DHEA formation); assay type: physicochemical
# Source text: These conditions were used to stress the formulation in order to predict its long-term stability results. […] The primary degradant is DHEA. […] The materials on accelerated storage become more cohesive with time as evidenced by clumping during sample weighing for chemical analysis. […] This is a considerable disadvantage since lactose is the most commonly used inhalation excipient for dry powder formulations. Continuing with the virtually anhydrous form would mean limiting formulations to neat powder or undertaking more comprehensive safety studies to use a novel excipient.
# [6] = Aerosolization of neat DHEA-S dihydrate, Acu-Breathe single-dose inhaler, fine particle fraction; assay type: physicochemical; settings: neat powder, Acu-Breathe, 30 to 75 L/min, all flow rates
# Source text: The single-dose Acu-Breathe device is used for evaluating DHEA-S.dihydrate. […] These blisters are actuated into the Andersen 8-stage cascade impactor at flow rates ranging from 30 to 75 L/min with a glass twin-impinger throat. Stages 1-5 of the Andersen impactor are rinsed together to obtain an estimate of the fine particle fraction. Pooling the drug collected from multiple stages into one assay make the method much more sensitive. […] Using a carrier with a larger particle size typically improves the aerosol properties of micronized drug substances.
# adenosine = assay: In vivo effect on adenosine levels in rat tissues (HPLC of tissue adenosine)
# Method: Folinic acid (50 mg/kg) was administered intraperitoneally once daily for fourteen days. […] Hearts were removed from animals and flash frozen in liquid nitrogen with 10 s of death. Liver and lungs were removed en bloc and flash frozen with 30 s of death. Brain tissue was subsequently dissected.
# HT-29 SF cells [7] = assay: Reversal of DHEA effect on cell cycle (flow cytometry); assay type: cell-based, human; settings: 25 μM DHEA, 48 hours
# asthma = settings: 657 patients with asthma, cited from earlier work
# HT-29 SF cells [8] = assay: DHEA effect on cell cycle (flow cytometry); assay type: cell-based, human
# Method: Cells were plated at 10^5/60-mm dish in duplicate. […] Cultures were trypsinized following 0, 24, 48, or 74 hours and fixed and stained using a modification of a procedure of Bauer et al., Cancer Res. 46, 3173-3178 (1986). Briefly, cells were collected by centrifugation and resuspended in cold phosphate-buffered saline. Cells were fixed in 70% ethanol, washed, and resuspended in phosphate-buffered saline.
# After 24, 48, and 72 hours, cells were harvested, fixed in ethanol, and stained with propidium iodide, and the DNA content/cell was determined by flow cytometric analysis. The percentage of cells in G1, S, and G2M phases was calculated using the Cellfit cell cycle analysis program. S phase is marked by a quadrangle for clarity. Representative histograms from duplicate determinations are shown. The experiment was repeated three times.
# HT-29 SF cells [9] = assay: DHEA effect on cell growth (Coulter counter); assay type: cell-based, human; settings: 12.5-200 μM, 24-72 hours
# [10] = Folinic Acid 50 mg/kg intraperitoneally once daily 14 days, mean±SEM
smiles,measurement,setting,value
"C[C@]12CC[C@H](OS(=O)(=O)[O-])CC1=CC[C@@H]1[C@@H]2CC[C@]2(C)C(=O)CC[C@@H]12.[Na+] [DHEA-S, sodium dehydroepiandrostenone sulfate]",Stability of nebulizer formulation,"[1]; 7.5 mg/mL in 0.12% NaCl, RT",stable for at least one day
same,Appearance of solution on storage,[1]; 40° C.,became cloudy after two days of storage
same,Appearance of solution on storage,[1]; RT (24-26° C.),slight precipitate is observed on the third day
same,Degradation of the drug during jet milling micronization,[2],no detectable degradation
same,Solubility,"Solubility of DHEA-S; 0.9% NaCl, refrigerated (7-8° C.)",1100 to 1300 µg/mL
same,Ksp,"Solubility of DHEA-S; 15° C., interpolated",~1316 mM^2
same,Solubility in hexane,Solubility of DHEA-S; hexane,insoluble
same,Equilibrium constant Ksp,Solubility of DHEA-S; refrigerated (7-8° C.),665 mM^2
same,Equilibrium constant Ksp,Solubility of DHEA-S; room temperature (24-25° C.),2236 mM^2
same,Solubility,"Solubility of DHEA-S; ~25° C., 0% NaCl",16500 to 17400 µg/mL
"CC(C)=CCC/C(C)=C/CC/C(C)=C/CC/C=C(\C)CC/C=C(\C)CCC=C(C)C [SQ, squalene]",Reversal of DHEA-induced growth inhibition,HT-29 SF cells [3],no such effect
CC12CCC3C(CC=C4CC(OS(=O)(=O)[O-])CCC43C)C1CCC2=O.[Na+] (stereo not drawn) [DHEA-S Dihydrate],Particle size (D50%),[4]; Bulk,31 microns
same,Water (% w/w),[4]; Bulk,8.5 % w/w
same,Particle size (D50%),[4]; Micronized,3.7 microns
same,Water (% w/w),[4]; Micronized,8.4 % w/w
same,Surface area (m^2/g),"[4]; Micronized, five point BET",4.9 m^2/g
same,Colour after storage,[5]; 1 week at 50° C.,no change in color
same,DHEA % formed,"[5]; 50° C., 1 week",0.216%
same,DHEA % formed,"[5]; 50° C., 3 weeks",0.317%
same,DHEA % formed,"[5]; 50° C., 4 weeks",0.374%
same,DHEA % formed,"[5]; Control, initial (Time=0)",0.213%
same,DHEA % formed,"[5]; Control, sealed, 25° C., 4 weeks",0.218%
same,"Water content, starting value",[5]; before storage,8.8%
same,Water content after accelerated storage,[5]; one week at 50° C.,8.66%
same,Fine particle fraction compared with virtually anhydrous material,[6],higher fine particle fraction
"C[C@]12CCC(=O)C=C1CC[C@@H]1[C@@H]2CC[C@@]2(C)[C@H]1CC[C@]2(C)O [Methyltestosterone, methyltestosterone]","Intracellular adenosine, Liver","adenosine; Methyltestosterone 40 mg/kg, mean±SEM",16.5 ± 0.9 nmols/mg protein
same,"Intracellular adenosine, Liver","adenosine; Methyltestosterone 120 mg/kg, mean±SEM",5.1 ± 0.5 nmols/mg protein
"C[C@@](O)(CCO)CC(=O)O [MVA, mevalonic acid]",Prevention of DHEA-induced S phase depletion,HT-29 SF cells [7],partially prevented
same,Reversal of DHEA-induced growth inhibition,HT-29 SF cells [3],partially overcome
"CC(C)CCC[C@@H](C)[C@H]1CC[C@H]2[C@@H]3CC=C4C[C@@H](O)CC[C@]4(C)[C@H]3CC[C@]12C [CH, cholesterol]",Prevention of DHEA-induced S phase depletion,HT-29 SF cells [7],very little effect
same,Reversal of DHEA-induced growth inhibition,HT-29 SF cells [3],no such effect
"Nc1nc(=O)c2c([nH]1)NCC(CNc1ccc(C(=O)N[C@@H](CCC(=O)O)C(=O)O)cc1)N2C=O (mixture of isomers) [Folinic Acid, Folinic acid]","Intracellular adenosine, Brain",adenosine; [10],0.72 ± 0.09 nmols/mg protein
same,"Intracellular adenosine, Heart",adenosine; [10],12.4 ± 2.1 nmols/mg protein
same,"Intracellular adenosine, Liver",adenosine; [10],16.4 ± 2.4 nmols/mg protein
same,Effect on adenosine levels when administered alone,adenosine; all organs studied,increase in adenosine levels
same,Effect of coadministration on steroid-mediated adenosine depletion,adenosine; coadministered with DHEA or methyltestosterone,completely abrogated
O=C(Nc1c(Cl)cncc1Cl)c1ccc(OC(F)F)c(OCC2CC2)c1 [Roflumilast],Reduction of number of exacerbations compared to placebo,asthma; higher dose,48%
same,Reduction of number of exacerbations compared to placebo,asthma; lower dose,8%
"C[C@]12CC[C@H](O)CC1=CC[C@@H]1[C@@H]2CC[C@]2(C)C(=O)CC[C@@H]12 [DHEA, 3β-hydroxyandrost-5-en-17-one]",Percentage of cells in G1 / S phase,"HT-29 SF cells [8]; 200 μM, after 24 hours",more rapid increase in the percentage of cells in G1 and a decreased proportion of cells in S phase
same,G2M phase cells,"HT-29 SF cells [8]; 25 or 50 μM, after 48 hours",transient increase
same,Percentage of cells in G1 phase,"HT-29 SF cells [8]; 25 or 50 μM, after 72 hours",increased
same,Cell cycle distribution,"HT-29 SF cells [8]; 25 or 50 μM, after the initial 24 hours",unchanged
same,Overall effect on cell cycle,HT-29 SF cells [8]; time- and dose-dependent,G1 block
same,Solubility in water,Solubility of DHEA-S; water,insoluble in water
same,Effect on growth of HT-29 cells,HT-29 SF cells [9],time- and dose-dependent inhibition of growth
